Measured values reported in patent publication US20190350930A1, “COMPOSITION FOR CONTROLLING GASTROESOPHAGEAL REFLUX DISEASES” (bitop AG, priority 2016, published 2019).

Tested on: mucus-forming epithelial cells TR146
Experiment: in vitro cell culture model: TR146 cells damaged with acidic HCl/pepsin solution, then incubated with ectoine; cell count by neutral red cytotoxicity assay
Assay type: cell-based
Settings: FIG. 1
Protocol: The cells were treated with acid solutions containing the digestive enzyme pepsin and following this treated with ectoine. TR146 cells were added to a microplate having 96 wells, with the cells being allowed to grow until the surface was almost completely covered. The cells were then treated for 10 min. with a diluted acidic HCl solution together with pepsin in a cell culture medium. The concentration of pepsin was 2 U/ml. Following this, the cells were washed with PBS (phosphate buffered saline) and incubated overnight either with ectoine or for control purposes with pure solvent. After incubation, a cell count determination was carried out using a […] for which a cyanine-based nucleic acid dye was employed. The assay is based on the fact that the plasma membrane of damaged or dead cells becomes permeable to the dye and the dye binds to the DNA of the cell, which is associated with a corresponding increase in fluorescence. For […] control, cells were treated with 0.1% sodium dodecyl sulfate (SDS) solution as denaturing agent. Other cells (full medium) were not treated with acid/pepsin.

With `CC1=NCC[C@@H](C(=O)O)N1` (stereo in doubt) [ectoine, 2-methyl-1,4,5,6-tetrahydropyrimidine-4-carboxylic acid] the “effect with respect to the regeneration of the cells” value (50 mM ectoine, overnight incubation after 10 min acidic HCl solution with pepsin 2 U/ml) was “excellent effect” and the cell viability (cells treated with ectoine (50 mM) after acid/pepsin, compared with full-medium cells not treated with acid/pepsin) was “comparable to that of cells that were not subjected to a treatment with an acidic pepsin solution”.
